Earlier results on 1 compound are cited in patent publication US20200300859A1, “MODULATING BIOMARKERS TO INCREASE TUMOR IMMUNITY AND IMPROVE THE EFFICACY OF CANCER IMMUNOTHERAPY” (Dana-Farber Cancer Institute, Inc., priority 2017, published 2020).

Molecules are shown by their SMILES.

The test system of this data set is osmotic nephrosis. Conditions: in vivo.

Turning to `CN1C(=O)C(Cc2c[nH]c3ccccc23)NC1=S` (stereo not shown) [Necrostatin-1, 5-(1H-Indol-3-ylmethyl)-3-methyl-2-thioxo-4-imidazolidinone], the osmotic nephrosis result is “prevents”.
